Reference: ChEMBL document CHEMBL1201862, “PubChem BioAssay data set” (2004)
Counter-ions that a name gives are not always drawn.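 Grown in 96-well plates, cells were treated for 48 hours with each compound at five concentrations. Insufficient inhibition: endpoint recorded as highest concentration tested. GI50 = concentration required for 50% inhibition of growth.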 Calls of active or inactive are those of the source. Cut-off read from the data, not from the text of the source: active = GI50 up to about 1.1 µM and inactive = higher.

Key:
Experiment in all cases: NCI anticancer screen, dose series, 48 h
U-251 = test system: U-251
K562 = test system: K562
SF-295 = test system: SF-295
LOX IMVI = test system: LOX IMVI
UACC-62 = test system: UACC-62
Malme-3M = test system: Malme-3M
SN12C = test system: SN12C
IGROV-1 = test system: IGROV-1
PC-3 = test system: PC-3
OVCAR-8 = test system: OVCAR-8
SNB-19 = test system: SNB-19
DU-145 = test system: DU-145
OVCAR-3 = test system: OVCAR-3
SK-MEL-28 = test system: SK-MEL-28
OVCAR-4 = test system: OVCAR-4
HCC 2998 = test system: HCC 2998
RPMI-8226 = test system: RPMI-8226
UO-31 = test system: UO-31
RXF 393 = test system: RXF 393
BT-549 = test system: BT-549

SMILES | GI50 (U-251) | GI50 (K562) | GI50 (SF-295) | GI50 (LOX IMVI) | GI50 (UACC-62) | GI50 (Malme-3M) | GI50 (SN12C) | GI50 (IGROV-1) | GI50 (PC-3) | GI50 (OVCAR-8) | GI50 (SNB-19) | GI50 (DU-145) | GI50 (OVCAR-3) | GI50 (SK-MEL-28) | GI50 (OVCAR-4) | GI50 (HCC 2998) | GI50 (RPMI-8226) | GI50 (UO-31) | GI50 (RXF 393) | GI50 (BT-549)
C/C(=C\[Si](C)(C)c1ccco1)C(C)(O)[C@H](C)O (stereo partly drawn) | > 100 µM (inactive) | 32.3 µM (inactive) | 49.4 µM (inactive) | > 100 µM (inactive) | > 100 µM (inactive) | 52.8 µM (inactive) | 32.7 µM (inactive) | > 100 µM (inactive) | 38.9 µM (inactive) | 55.1 µM (inactive) | > 100 µM (inactive) | 38.4 µM (inactive) | 54.5 µM (inactive) | > 100 µM (inactive) | 2.9 µM (inactive) | 34.8 µM (inactive) | 30.8 µM (inactive) | – | – | –
CC(CN1c2ccccc2Sc2ccccc21)N(C)C (stereo not drawn) [PROMETHAZINE HYDROCHLORIDE] | 14.2 µM (inactive) | 17.3 µM (inactive) | 15.4 µM (inactive) | 18.9 µM (inactive) | 19 µM (inactive) | 18.9 µM (inactive) | 15.3 µM (inactive) | 20.1 µM (inactive) | 15.8 µM (inactive) | 16.2 µM (inactive) | 17.4 µM (inactive) | 19.4 µM (inactive) | 16.5 µM (inactive) | 17.8 µM (inactive) | 16.4 µM (inactive) | 20.1 µM (inactive) | – | 17.9 µM (inactive) | 20.8 µM (inactive) | –
COCCOCN(C(=O)C1=CCC2(CC1)OCCO2)c1ccccc1I | > 50 µM (inactive) | – | > 50 µM (inactive) | > 50 µM (inactive) | > 50 µM (inactive) | – | > 50 µM (inactive) | – | > 50 µM (inactive) | > 50 µM (inactive) | > 50 µM (inactive) | > 50 µM (inactive) | > 50 µM (inactive) | > 50 µM (inactive) | > 50 µM (inactive) | > 50 µM (inactive) | > 50 µM (inactive) | > 50 µM (inactive) | – | –
CN1CCOC1c1ccccc1O (stereo not drawn) | > 100 µM (inactive) | > 100 µM (inactive) | > 100 µM (inactive) | > 100 µM (inactive) | > 100 µM (inactive) | > 100 µM (inactive) | – | > 100 µM (inactive) | > 100 µM (inactive) | > 100 µM (inactive) | > 100 µM (inactive) | – | > 100 µM (inactive) | – | > 100 µM (inactive) | – | > 100 µM (inactive) | > 100 µM (inactive) | > 100 µM (inactive) | > 100 µM (inactive)
CCOC(=O)C(NC(C)=O)(Nc1ccc(S(N)(=O)=O)cc1)C(F)(F)F (stereo not drawn) | > 100 µM (inactive) | > 100 µM (inactive) | > 100 µM (inactive) | > 100 µM (inactive) | – | > 100 µM (inactive) | > 100 µM (inactive) | > 100 µM (inactive) | > 100 µM (inactive) | > 100 µM (inactive) | > 100 µM (inactive) | > 100 µM (inactive) | > 100 µM (inactive) | > 100 µM (inactive) | > 100 µM (inactive) | > 100 µM (inactive) | > 100 µM (inactive) | > 100 µM (inactive) | > 100 µM (inactive) | –
O=C1O/C(=C/c2ccccc2)C(c2ccccc2)=C1O | 31.3 µM (inactive) | 41.1 µM (inactive) | 36.3 µM (inactive) | 36.6 µM (inactive) | 18.5 µM (inactive) | 60.7 µM (inactive) | 33 µM (inactive) | 40.6 µM (inactive) | 29.2 µM (inactive) | 60.1 µM (inactive) | 47.5 µM (inactive) | 26 µM (inactive) | 19.8 µM (inactive) | 35.5 µM (inactive) | 55.3 µM (inactive) | 41.3 µM (inactive) | 28 µM (inactive) | 27 µM (inactive) | 24.3 µM (inactive) | –
O=C(N/C(=C/c1ccc(Cl)cc1)c1nc2ccccc2c(=O)n1Nc1ccc([N+](=O)[O-])cc1[N+](=O)[O-])c1ccccc1 | > 100 µM (inactive) | > 100 µM (inactive) | > 100 µM (inactive) | > 100 µM (inactive) | > 100 µM (inactive) | > 100 µM (inactive) | > 100 µM (inactive) | > 100 µM (inactive) | > 100 µM (inactive) | > 100 µM (inactive) | > 100 µM (inactive) | – | > 100 µM (inactive) | > 100 µM (inactive) | > 100 µM (inactive) | > 100 µM (inactive) | – | > 100 µM (inactive) | – | > 100 µM (inactive)
COC(=O)CCC1(CCC(=O)OC)CCCCCCC(CCC(=O)OC)(CCC(=O)OC)C(=O)C1=O | > 100 µM (inactive) | 23.6 µM (inactive) | > 100 µM (inactive) | > 100 µM (inactive) | > 100 µM (inactive) | > 100 µM (inactive) | > 100 µM (inactive) | > 100 µM (inactive) | 47.8 µM (inactive) | > 100 µM (inactive) | > 100 µM (inactive) | > 100 µM (inactive) | 55.3 µM (inactive) | > 100 µM (inactive) | – | 27.9 µM (inactive) | < 0.01 µM (active) | 44.4 µM (inactive) | > 100 µM (inactive) | –
CC1OCC2OC(C)OC(C3C4=C(CC(C)(C)CC4=O)OC4=C3C(=O)CC(C)(C)C4)C2O1 (stereo not drawn) | – | > 100 µM (inactive) | > 100 µM (inactive) | > 100 µM (inactive) | > 100 µM (inactive) | > 100 µM (inactive) | > 100 µM (inactive) | – | > 100 µM (inactive) | > 100 µM (inactive) | > 100 µM (inactive) | > 100 µM (inactive) | > 100 µM (inactive) | > 100 µM (inactive) | – | > 100 µM (inactive) | > 100 µM (inactive) | > 100 µM (inactive) | > 100 µM (inactive) | –
O=c1cc(-c2ccccc2F)[nH]c2ccc(N3CCCC3)cc12 | 0.0381 µM (active) | 0.0257 µM (active) | – | 0.0398 µM (active) | 0.0185 µM (active) | > 100 µM (inactive) | 0.17 µM (active) | 0.792 µM (active) | < 0.001 µM (active) | 0.0624 µM (active) | 0.0214 µM (active) | 0.0535 µM (active) | – | 0.465 µM (active) | 0.0269 µM (active) | 0.00179 µM (active) | 0.0468 µM (active) | 0.00274 µM (active) | 13 µM (inactive) | –
CCOC(CN(C)C(=O)Nc1ccc(Cl)c(Cl)c1)OCC | > 10 µM (inactive) | > 10 µM (inactive) | > 10 µM (inactive) | > 10 µM (inactive) | > 10 µM (inactive) | > 10 µM (inactive) | > 10 µM (inactive) | > 10 µM (inactive) | > 10 µM (inactive) | > 10 µM (inactive) | > 10 µM (inactive) | > 10 µM (inactive) | > 10 µM (inactive) | > 10 µM (inactive) | > 10 µM (inactive) | > 10 µM (inactive) | > 10 µM (inactive) | > 10 µM (inactive) | > 10 µM (inactive) | –
OC1(c2ccccc2)CCCCCCCCC(O)(c2ccccc2)CCCCCCCC1 (stereo not drawn) | > 100 µM (inactive) | > 100 µM (inactive) | > 100 µM (inactive) | > 100 µM (inactive) | > 100 µM (inactive) | > 100 µM (inactive) | > 100 µM (inactive) | > 100 µM (inactive) | > 100 µM (inactive) | > 100 µM (inactive) | > 100 µM (inactive) | > 100 µM (inactive) | > 100 µM (inactive) | > 100 µM (inactive) | > 100 µM (inactive) | > 100 µM (inactive) | – | > 100 µM (inactive) | > 100 µM (inactive) | –
